Laboratory results published in patent publication US5698710A, “Tachykinins antagonists” (A. Menarini Industrie Farmaceutiche Riunite S.r.l., priority 1994, dated 1997).

Biological target: T1, NK1 receptors (Homo sapiens, UniProt P25103)
T1 construct: endogenous in cells; host or cells: IM9 cells (intact)
Assay: [^3 H]SP Binding Assay in IM9 Cell Line (competition)
Conditions: for Ki: read-out: Affinity (pKi) in the IM9 binding test (converted); for Affinity (pKi) in the IM9 binding test: intact IM9 cells, 0.3 nM [^3 H]SP, 60' at room temperature, pH 7.5
Protocol: The evaluation of the antagonist acivity of NK1 receptors was performed with binding and functional tests.
The assay was carried out on intact cells as described by Payan et al. (1984). The cells were washed with buffer A at pH 7.5 containing (in mM) Tris-HCl 50, NaCl 150 and 0.02% BSA, thereafter were resuspended in a dosage buffer (buffer A added with protease inhibitors), concentration 1×10^7 cells/ml. […] The non-specific binding was calculated in the presence of […] of non-radioactive SP. The dosage mixture was poured in test tubes for microcentrifugation which were preadsorbed in a solution of BSA 0.5% for at least 3 hours. […] The affinity was measured as pKi.

T1 sequence (P25103 whole entry): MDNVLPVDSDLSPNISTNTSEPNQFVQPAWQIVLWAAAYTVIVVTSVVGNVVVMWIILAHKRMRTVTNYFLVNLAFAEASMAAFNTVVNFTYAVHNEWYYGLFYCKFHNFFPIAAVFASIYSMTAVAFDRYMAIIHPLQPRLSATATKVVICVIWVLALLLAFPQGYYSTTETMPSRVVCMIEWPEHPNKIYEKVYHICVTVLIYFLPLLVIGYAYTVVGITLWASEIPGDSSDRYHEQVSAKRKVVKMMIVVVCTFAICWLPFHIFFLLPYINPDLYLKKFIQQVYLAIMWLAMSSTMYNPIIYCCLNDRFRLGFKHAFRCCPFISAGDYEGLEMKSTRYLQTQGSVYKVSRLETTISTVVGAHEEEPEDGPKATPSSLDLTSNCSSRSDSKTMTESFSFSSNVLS

Compound	Ki [nM]	Affinity (pKi) in the IM9 binding test
CN(Cc1ccccc1)C(=O)C(Cc1ccc2ccccc2c1)NC(=O)C1(NC(=O)c2ccc(Cl)c(Cl)c2)CCCCC1 (centres unmarked) [N-[N(3,4-dichloro-benzoyl)-1-amino-cyclohexancarbonyl]-2-(2-naphthyl)alanine-N-methyl-N-benzylamide]	7.94	
CN(Cc1ccccc1)C(=O)C(Cc1ccc2ccccc2c1)NC(=O)C1(NC(=O)c2c[nH]c3ccccc23)CCCC1 (centres unmarked) [N-[N(1(H)indol-3-yl-carbonyl)-1-amino-cyclopentancarbonyl]-2-(2-naphthyl)alanine-N-methyl-N-benzylamide]	2.51	
CN(Cc1ccccc1)C(=O)C(Cc1ccccc1)NC(=O)C1(NC(=O)c2c[nH]c3ccccc23)CCCC1 (centres unmarked) [N-[N(1(H)indol-3-yl-carbonyl)-1-amino-cyclopentancarbonyl]-phenylalanine-N-methyl-N-benzylamide]	158	
CN(Cc1ccccc1)C(=O)C(Cc1ccc(O)cc1)NC(=O)C1(NC(=O)c2c[nH]c3ccccc23)CCCCC1 (centres unmarked) [N-[N(1(H)indol-3-yl-carbonyl)-1-amino-cyclohexancarbonyl]-tyrosine-N-methyl-N-benzylamide]	20	
CN(Cc1ccccc1)C(=O)C(Cc1ccc2ccccc2c1)NC(=O)C1(NC(=O)c2c[nH]c3ccccc23)CCSCC1 (centres unmarked) [N-[N(1(H)indol-3-yl-carbonyl)-4-amino-tetrahydrothiopyran-4-carbonyl]-2-(2-naphthyl)alanine-N-methyl-N-benzylamide]	5.01	
CN(Cc1ccccc1)C(=O)C(Cc1ccc2ccccc2c1)NC(=O)C1(NC(=O)c2c[nH]c3ccccc23)CCNCC1 (centres unmarked) [N-[N(1(H)indol-3-yl-carbonyl)-4-amino-piperidin-4-carbonyl]-2-(2-naphthyl)alanine-N-methyl-N-benzylamide]	12.6	
CN(Cc1ccccc1)C(=O)C(Cc1ccc2ccccc2c1)NC(=O)C1(NC(=O)c2cn(C)c3ccccc23)CCCCC1 (centres unmarked) [N-[N(1(methyl)indol-3-yl-carbonyl)-1-amino-cyclohexancarbonyl]-2-)2-naphthyl)alanine-N-methyl-N-benzylamide]	15.8	
CN(Cc1ccccc1)C(=O)C(Cc1ccc2ccccc2c1)NC(=O)C1(NC(=O)c2ccccc2)CCCCC1 (centres unmarked) [N-[N(benzoyl)-1-amino-cyclohexancarbonyl]-2-(2-naphthyl)alanine-N-methyl-N-benzylamide]	15.8	
CN(Cc1ccccc1)C(=O)C(Cc1ccccc1)NC(=O)C1(NC(=O)c2c[nH]c3ccccc23)CCCCC1 (centres unmarked) [N-[N(1(H)indol-3-yl-carbonyl)-1-amino-cyclohexancarbonyl]-phenylalanine-N-methyl-N-benzylamide]	178	
CN(Cc1ccccc1)C(=O)C(Cc1ccc2ccccc2c1)NC(=O)C1(NC(=O)c2cc3ccccc3o2)CCCCC1 (centres unmarked) [N-[N(benzofuran-2-yl-carbonyl)-1-aminocyclohexancarbonyl]-2-(2-naphthyl)alanine-N-methyl-N-benzylamide]	44.7	
CN(C(=O)Cc1ccccc1)C(Cc1ccc2ccccc2c1)NC(=O)C1(NC(=O)c2c[nH]c3ccccc23)CCNCC1 (centres unmarked) [xxviii, 1-N-[N(1(H)indol-3-yl-carbonyl)-4-amino-piperidin-4-carbonyl]-amino-1-[N(methyl)-N-(2-phenylacetyl)]amino-2-(2-naphtyl)ethane]	12.6	
COc1ccc(CC(NC(=O)C2(NC(=O)c3c[nH]c4ccccc34)CCCCC2)C(=O)N(C)Cc2ccccc2)cc1 (centres unmarked) [N-[N(1(H)indol-3-yl-carbonyl)-1-amino-cyclohexancarbonyl]-4-methoxyphenylalanine-N-methyl-N-benzylamide]	3.98	
CN(Cc1ccccc1)C(=O)C(Cc1ccc2ccccc2c1)NC(=O)C1(NC(=O)c2c[nH]c3ccccc23)CCOCC1 (centres unmarked) [xxvii, N-[N(1(H)indol-3-yl-carbonyl)-4-amino-tetrahydropyran-4-carbonyl]-2-naphthylalanine-N-methyl-N-benzylamide]	6.31	
CN(Cc1ccccc1)C(=O)C(Cc1ccc2ccccc2c1)NC(=O)C1(NC(=O)c2ccc(Cl)cc2)CCCCC1 (centres unmarked) [N-[N(4-chloro-benzoyl)-1-amino-cyclohexancarbonyl]-2-(2-naphthyl)alanine-N-methyl-N-benzylamide]	10	
CN(Cc1ccccc1)C(=O)C(Cc1ccc2ccccc2c1)NC(=O)C1(N(C)C(=O)c2cn(C)c3ccccc23)CCCCC1 (centres unmarked) [xii, N-[N(1(methyl)indol-3-yl-carbonyl)-N-methyl-1-amino-cyclohexancarbonyl]-2 naphthylalanine-N-methyl-N-benzylamide]	15.8	
CN(Cc1ccccc1)C(=O)C(Cc1ccc2ccccc2c1)NC(=O)C1(NC(=O)c2ccc([N+](=O)[O-])cc2)CCCCC1 (centres unmarked) [N-[N(4-nitro-benzoyl)-1-amino-cyclohexancarbonyl]-2-(2-naphthyl)alanine-N-methyl-N-benzylamide]	5.01	
COc1ccc(CC(NC(=O)C2(NC(=O)c3c[nH]c4ccccc34)CCCC2)C(=O)N(C)Cc2ccccc2)cc1 (centres unmarked) [N-[N(1(H)indol-3-yl-carbonyl)-1-amino-cyclopentancarbonyl]-4-methyoxyphenylalanine-N-methyl-N-benzylamide]	794	
CN(Cc1ccccc1)C(=O)C(Cc1ccc([N+](=O)[O-])cc1)NC(=O)C1(NC(=O)c2c[nH]c3ccccc23)CCCCC1 (centres unmarked) [N-[N(1(H)indol-3-yl-carbonyl)-1-amino-cyclohexancarbonyl]-4-nitrophenylalanine-N-methyl-N-benzylamide]	20	
O=C(Cc1ccccc1)NC(Cc1ccc2ccccc2c1)NC(=O)C1(NC(=O)c2c[nH]c3ccccc23)CCCCC1 (centres unmarked) [ii, 1-[N(1(H)indol-3-yl-carbonyl)-1-amino-cyclohexancarbonyl]-amino-1[N-(2-phenylacetyl)amino]-2-(2-naphthyl)ethane]	15.8	
CN(Cc1ccccc1)C(=O)[C@H](Cc1ccc2ccccc2c1)NC(=O)C1(NC(=O)c2c[nH]c3ccccc23)CCCCC1 [Example, N^α [N-(1(H)indol-3-yl-carbonyl)-1-amino-cyclohexan-carbonyl]-L-2-naphthylalanine-N-methyl-N-benzylamide]	1	
COCCOCOC1CCC(NC(=O)c2c[nH]c3ccccc23)(C(=O)NC(Cc2ccccc2)C(=O)N(C)Cc2ccccc2)CC1 (stereo not drawn) [xxv, N-[N(1(H)indol-3-yl-carbonyl)-1-amino-cis-4-methoxyethoxymethoxyl-cyclohexancarbonyl]-phenylalanine-N-methyl-N-benzylamide]		7.6
CN(Cc1ccccc1)C(=O)C(Cc1ccc2ccccc2c1)NC(=O)C1(NC(=O)c2c[nH]c3ccccc23)CCC(O)CC1 (stereo not drawn) [xviii, N-[N(1(H)indol-3-yl-carbonyl)-1-amino-cis-4-hydrohy-cyclohexancarbonyl]-2-(2-naphthyl)alanine-N-methyl-N-benzylamide]		8.3
COc1ccc(C(=O)NC2(C(=O)NC(Cc3ccc4ccccc4c3)C(=O)N(C)Cc3ccccc3)CCCCC2)cc1 (centres unmarked) [N-[N(4-methoxy-benzoyl)-1-amino-cyclohexancarbonyl]-2-(2-naphthyl)alanine-N-methyl-N-benzylamide]	20	
